According to patent publication US11246856B2, “Methods of treating resistant cancers” (University of Maryland, Baltimore, priority 2017, dated 2022):

What was measured:
Assay type in all cases: cell-based
A375-PLX-R cells = assay: Cell proliferation, PLX4032-resistant A375-PLX-R cells; settings: ERK1/2 inhibitor treatment, FIG. 5H
Method: (§1) A375, SK-MEL-5 and SK-MEL-28 cell lines were maintained in DMEM growth medium containing 10% FCS, 2 mM L-glutamine and 1 mM sodium pyruvate. The WM3248 cells were maintained in MCDB153:L15 (4:1) growth medium containing 2% FCS, […] insulin and 1.68 mM CaCl2. To create PLX4032-resistant cells, A375, SK-MEL-5, SK-MEL-28 and WM3248 cells were treated with […] in monolayer culture in growth medium for several weeks. The surviving cells were then expanded and cultured in increasing doses of PLX4032 up to […]. The resulting PLX4032-resistant cells, designated PLX4032-resistant (e.g., A375-PLX-R) were routinely maintained in the presence of […] PLX4032.

[1] = test system: SKMELS-PLX-R, SKMEL28-PLX-R and WM3248-PLX-R cells; assay: Cell proliferation, other PLX4032-resistant lines; settings: ERK1/2 inhibitor treatment, FIG. 5I
Method: as §1
This predicts that the BRAF inhibitors-resistant cells should remain sensitive to ERK1/2 inhibitors. To assess the role of ERK1/2 PLX4032 resistant cells were treated with SCH772984, a specific inhibitor of ERK1/2 (31), and the impact on cell proliferation was monitored.

[2] = test system: YAP1, TAZ and TEAD in A375 and A375-PLX-R cells; assay: YAP1/TAZ/TEAD mRNA and protein level after verteporfin, monolayer cells; settings: proteasome inhibitor with verteporfin, FIG. 4I
Method: Equivalent amounts of protein were electrophoresed on denaturing and reducing 10% polyacrylamide gels and transferred to nitrocellulose membrane. The membrane was blocked by 5% nonfat dry milk for one hour and incubated with 1:1000 primary antibody in 5% nonfat dry milk. Blots were rinsed in TBS-T and then incubated with secondary antibodies (1:5000) for 2 h. Secondary antibody binding was visualized using ECL Prime (Amersham) chemiluminescence detection technology. For immunostaining, cells were harvested, suspended in growth medium, and plated in LAB-TEK II Chamber Slide System. After 24 h, the cells were fixed with 4% paraformaldehyde at room temperature for 15 min, washed three with phosphate-buffered saline, in 0.1% Triton X-100 for 15 min, washed with phosphate-buffered saline, and blocked for 1 h with phosphate-buffered saline containing 7.5% fetal calf serum. Primary antibodies were added, and the slides incubated overnight at 4° C. Cells were then washed three times with phosphate-buffered saline and incubated 1 h with the appropriate Alexa Flour fluorescence probe-conjugated secondary antibody. After additional washing, the cells were stained with DAPI for 10 min prior to imaging.
Total RNA was isolated using Illustra RNAspin mini kit (GE Healthcare), and 1 μg of RNA was used for cDNA synthesis. Gene expression was measured by real time PCR using Light Cycler 480 SYBR Green I Master Mix (04-707 516 001) from Roche Diagnostics (Indianapolis, Ind.). The signals were normalized using cyclophilin A control primers. The gene specific primers used for detection of mRNA levels were as follows: cyclophilin A (forward, 5′-[…] (SEQ ID NO: 3); reverse, 5′-[…] (SEQ ID NO: 4)), TAZ (forward, 5′-GTATCCCAGCCAATC TCG (SEQ ID NO: 5); reverse, 5′-TTCTGAGTGGGGTGGTTC (SEQ ID NO: 6)) and YAP1 (forward, 5′-[…] (SEQ ID NO: 7); reverse, 5′-[…], (SEQ ID NO: 8)) (11).
To understand the mechanism of verteporfin action, monolayer A375 and A375-PLX-R cells were treated with […] verteporfin for 24 h and the impact on YAP1/TAZ mRNA and protein level was monitored. […] The proteasome is known to regulate YAP1/TAZ level (29,30) and so whether the proteasome was responsible for the observed reductions was examined.

| SMILES | A375-PLX-R cells number (A375-PLX-R cells) | proliferation of PLX4032-resistant cells [1] | reversal of verteporfin-dependent reduction in YAP1, TAZ and TEAD level [2] |
| --- | --- | --- | --- |
| O=C(Nc1ccc2[nH]nc(-c3ccncc3)c2c1)[C@@H]1CCN(CC(=O)N2CCN(c3ccc(-c4ncccn4)cc3)CC2)C1 [SCH772984] | time-dependent reduction | reduced | – |
| CC(=O)N[C@@H](CSC(=O)[C@]1([C@@H](O)C(C)C)NC(=O)[C@H](C)[C@@H]1O)C(=O)O [lactacystin] | – | – | not reversed |
